Experimental data reported in patent US10961202B2, “Bis-benzimidazole compounds and methods of using the same” (THE SCRIPPS RESEARCH INSTITUTE, priority 2017, dated 2021).

These compounds were tested on r(CUG)12-MBNL1 complex (assay: Inhibition of the r(CUG)12-MBNL1 complex measured by TR-FRET). Details: Table M; 80 nM RNA, 60 nM MBNL1-His6.
Assay type: biochemical

IC50 [µM]	SMILES
33.5	CN(C)CCNC(=O)c1ccc(-c2nc3cc(-c4ccc5[nH]c(-c6ccc(C(=O)NCCN(C)CCCCc7cn(CCCNC(=O)CCC(=O)NCCCN=[N+]=[N-])nn7)cc6)nc5c4)ccc3[nH]2)cc1 [Compound 345]
≥ 200	c1cc(-c2nc3cc(-c4ccc5[nH]c(-c6ccc(OCCN7CCOCC7)cc6)nc5c4)ccc3[nH]2)ccc1OCCN1CCOCC1 [Compound 351]
21.2	Cc1cc(-c2nc3cc(-c4ccc5[nH]c(-c6cc(C)c(OCCCN(C)C)c(C)c6)nc5c4)ccc3[nH]2)cc(C)c1OCCCN(C)C [Compound 360]
29	CN(C)CCCCOc1ccc(-c2nc3cc(-c4ccc5[nH]c(-c6ccc(OCCCCN(C)C)cc6)nc5c4)ccc3[nH]2)cc1 [Compound 362]
18.7	CN(C)CCCCOc1ccc(-c2nc3cc(-c4ccc5[nH]c(-c6ccc(O)cc6)nc5c4)ccc3[nH]2)cc1 [Compound 363]
9.84	Cc1cc(-c2nc3cc(-c4ccc5[nH]c(-c6ccc(OCCCN(C)C)c(C)c6)nc5c4)ccc3[nH]2)ccc1O [Compound 365]
21.5	CN(C)CCOCCOc1ccc(-c2nc3cc(-c4ccc5[nH]c(-c6ccc(OCCOCCN(C)C)cc6)nc5c4)ccc3[nH]2)cc1 [Compound 367]
12.8	CN1CC[C@@H](Oc2ccc(-c3nc4cc(-c5ccc6[nH]c(-c7ccc(O)cc7)nc6c5)ccc4[nH]3)cc2)C1 [Compound 374]
69.5	CN(C)CC(C)(C)COc1ccc(-c2nc3cc(-c4ccc5[nH]c(-c6ccc(OCC(C)(C)CN(C)C)cc6)nc5c4)ccc3[nH]2)cc1 [Compound 376]

The next lines start with the compound.

SMILES	IC50 [µM]
CN1CCC(NC(=O)c2ccc(-c3nc4cc(-c5ccc6[nH]c(-c7ccc(C(=O)O)cc7)nc6c5)ccc4[nH]3)cc2)CC1 [Compound 344]	154
CCN(CC)C(=O)COc1ccc(-c2nc3cc(-c4ccc5[nH]c(-c6ccc(OCC(=O)N(CC)CC)cc6)nc5c4)ccc3[nH]2)cc1 [Compound 349]	> 200
CN(C)CCOc1ccc(-c2nc3cc(-c4ccc5[nH]c(-c6cccc(OCCN(C)C)c6)nc5c4)ccc3[nH]2)cc1 [Compound 355]	11.2
CN1CCCCC1COc1ccc(-c2nc3cc(-c4ccc5[nH]c(-c6ccc(OCC7CCCCN7C)cc6)nc5c4)ccc3[nH]2)cc1 (stereo not shown) [Compound 359]	65.5
Cc1cc(-c2nc3cc(-c4ccc5[nH]c(-c6cc(C)c(OCCCN(C)C)c(C)c6)nc5c4)ccc3[nH]2)cc(C)c1O [Compound 361]	9.64
Cc1cc(-c2nc3cc(-c4ccc5[nH]c(-c6ccc(OCCCN(C)C)c(C)c6)nc5c4)ccc3[nH]2)ccc1OCCCN(C)C [Compound 364]	7.64
CN1C(C)(C)CC(Oc2ccc(-c3nc4cc(-c5ccc6[nH]c(-c7ccc(OC8CC(C)(C)N(C)C(C)(C)C8)cc7)nc6c5)ccc4[nH]3)cc2)CC1(C)C [Compound 366]	> 200
CN(C)CCOCCOc1ccc(-c2nc3cc(-c4ccc5[nH]c(-c6ccc(O)cc6)nc5c4)ccc3[nH]2)cc1 [Compound 368]	18
CN(C)CC(CN(C)C)Oc1ccc(-c2nc3cc(-c4ccc5[nH]c(-c6ccc(OC(CN(C)C)CN(C)C)cc6)nc5c4)ccc3[nH]2)cc1 [Compound 369]	> 200
CN(C)CC(CN(C)C)Oc1ccc(-c2nc3cc(-c4ccc5[nH]c(-c6ccc(O)cc6)nc5c4)ccc3[nH]2)cc1 [Compound 370]	82.3
CN(C)CCCOc1c(C(C)(C)C)cc(-c2nc3cc(-c4ccc5[nH]c(-c6cc(C(C)(C)C)c(O)c(C(C)(C)C)c6)nc5c4)ccc3[nH]2)cc1C(C)(C)C [Compound 372, 2,6-di-tert-butyl-4-(2′-(3,5-di-tert-butyl-4-(3-(dimethylamino)propoxy)phenyl)-1H,1′H-[5,5′-bibenzo[d]imidazol]-2-yl)phenol]	> 200
CN1CC[C@@H](Oc2ccc(-c3nc4cc(-c5ccc6[nH]c(-c7ccc(O[C@@H]8CCN(C)C8)cc7)nc6c5)ccc4[nH]3)cc2)C1 [Compound 373]	29.2
NCCCOc1ccc(-c2nc3cc(-c4ccc5[nH]c(-c6ccc(OCCCN)cc6)nc5c4)ccc3[nH]2)cc1 [Compound 378]	17.3
